Results as given in ChEMBL document CHEMBL5303304, “EUbOPEN Chemogenomics Library - IncuCyte” (2023).

What was measured:
Type in all cases: toxicity, cell-based
[1] = tested on: U2OS; test: Incucyte cell viability with U2OS; settings: human, 10 µM, compound concentration 10 uM
[2] = tested on: Fibroblast; test: Incucyte cell viability with human fibroblast; settings: 10 µM, compound concentration 10 uM
[3] = tested on: HEK-293T; test: Incucyte cell viability with HEK293T; settings: human, 10 µM, compound concentration 10 uM
Further: unitless GR value; below 1 slowed growth and below 0 cell loss.

Compound: COc1cc(N(C)c2ccnc3ccc(C(F)(F)F)cc23)cc(OC)c1OC
- Growth Rate ([1]; 0 h, replicate number 2): 0.66
- Growth Rate ([1]; 6 h, replicate number 2): 0.7
- Growth Rate ([1]; 12 h, replicate number 1): 0.9
- Growth Rate ([1]; 12 h, replicate number 2): 0.88
- Growth Rate ([1]; 18 h, replicate number 2): 0.92
- Growth Rate ([1]; 24 h, replicate number 1): 1
- Growth Rate ([1]; 24 h, replicate number 2): 0.84
- Growth Rate ([2]; 0 h, replicate number 1): 0.97
- Growth Rate ([2]; 6 h, replicate number 1): -0.52
- Growth Rate ([2]; 6 h, replicate number 2): 0.41
- Growth Rate ([2]; 12 h, replicate number 2): 0.94
- Growth Rate ([2]; 18 h, replicate number 2): 0.91
- Growth Rate ([3]; 0 h, replicate number 2): -1
- Growth Rate ([3]; 6 h, replicate number 2): -0.32
- Growth Rate ([3]; 12 h, replicate number 2): 0.01
- Growth Rate ([3]; 18 h, replicate number 2): 0.27
- Growth Rate ([3]; 24 h, replicate number 2): 0.48

Compound: CCOC(=O)C1Cc2ccccc2CN1C(=O)c1ccc(SC)s1 (stereo not given)
- Growth Rate ([1]; 6 h, replicate number 1): 0.96
- Growth Rate ([1]; 6 h, replicate number 2): 0.87
- Growth Rate ([1]; 18 h, replicate number 2): 0.98
- Growth Rate ([1]; 24 h, replicate number 2): 0.88
- Growth Rate ([2]; 6 h, replicate number 2): 0.06
- Growth Rate ([2]; 12 h, replicate number 1): 0.66
- Growth Rate ([2]; 12 h, replicate number 2): 0.1
- Growth Rate ([2]; 18 h, replicate number 1): 0.58
- Growth Rate ([2]; 18 h, replicate number 2): 0.63
- Growth Rate ([2]; 24 h, replicate number 1): 0.86
- Growth Rate ([2]; 24 h, replicate number 2): 0.67
- Growth Rate ([3]; 0 h, replicate number 2): -0.82
- Growth Rate ([3]; 6 h, replicate number 1): 0.05
- Growth Rate ([3]; 6 h, replicate number 2): 0.28
- Growth Rate ([3]; 12 h, replicate number 1): 0.12
- Growth Rate ([3]; 12 h, replicate number 2): 0.49
- Growth Rate ([3]; 18 h, replicate number 1): 0.47
- Growth Rate ([3]; 18 h, replicate number 2): 0.5
- Growth Rate ([3]; 24 h, replicate number 1): 0.41
- Growth Rate ([3]; 24 h, replicate number 2): 0.5

Compound: Cc1ccc(NS(=O)(=O)c2ccc3c(c2)C2C=CCC2C(c2ccc(C(=O)O)cc2)N3)cc1C (stereo not given)
- Growth Rate ([1]; 0 h, replicate number 1): 0.88
- Growth Rate ([1]; 6 h, replicate number 1): 0.79
- Growth Rate ([1]; 12 h, replicate number 1): 0.82
- Growth Rate ([1]; 18 h, replicate number 1): 0.87
- Growth Rate ([1]; 18 h, replicate number 2): 0.99
- Growth Rate ([1]; 24 h, replicate number 1): 0.93
- Growth Rate ([1]; 24 h, replicate number 2): 0.91
- Growth Rate ([2]; 0 h, replicate number 2): 0.82
- Growth Rate ([2]; 6 h, replicate number 1): -0.66
- Growth Rate ([2]; 6 h, replicate number 2): 0.01
- Growth Rate ([2]; 12 h, replicate number 1): 0.86
- Growth Rate ([2]; 12 h, replicate number 2): 0.36
- Growth Rate ([2]; 18 h, replicate number 1): 0.83
- Growth Rate ([2]; 24 h, replicate number 1): 0.65
- Growth Rate ([2]; 24 h, replicate number 2): 0.72
- Growth Rate ([3]; 0 h, replicate number 2): -0.87
- Growth Rate ([3]; 12 h, replicate number 1): 0.89
- Growth Rate ([3]; 18 h, replicate number 1): 0.79

Compound: CCC(=O)Nc1cc(Nc2cc(NC3CC3)n3ncc(C#N)c3n2)ccc1C
- Growth Rate ([1]; 0 h, replicate number 1): -1
- Growth Rate ([1]; 6 h, replicate number 1): 0.24
- Growth Rate ([1]; 6 h, replicate number 2): 0.61
- Growth Rate ([1]; 12 h, replicate number 1): 0.12
- Growth Rate ([1]; 12 h, replicate number 2): 0.52
- Growth Rate ([1]; 18 h, replicate number 1): 0.39
- Growth Rate ([1]; 18 h, replicate number 2): 0.54
- Growth Rate ([1]; 24 h, replicate number 1): 0.44
- Growth Rate ([1]; 24 h, replicate number 2): 0.53
- Growth Rate ([2]; 6 h, replicate number 1): 0.76
- Growth Rate ([2]; 6 h, replicate number 2): 0.41
- Growth Rate ([2]; 12 h, replicate number 1): 0.46
- Growth Rate ([2]; 12 h, replicate number 2): 0.67
- Growth Rate ([2]; 18 h, replicate number 1): 0.33
- Growth Rate ([2]; 18 h, replicate number 2): 0.61
- Growth Rate ([2]; 24 h, replicate number 1): 0.48
- Growth Rate ([2]; 24 h, replicate number 2): 0.85
- Growth Rate ([3]; 0 h, replicate number 2): -0.72
- Growth Rate ([3]; 6 h, replicate number 1): 0.87
- Growth Rate ([3]; 6 h, replicate number 2): 0.94
- Growth Rate ([3]; 12 h, replicate number 1): 0.79
- Growth Rate ([3]; 12 h, replicate number 2): 0.59
- Growth Rate ([3]; 18 h, replicate number 1): 0.79
- Growth Rate ([3]; 18 h, replicate number 2): 0.83
- Growth Rate ([3]; 24 h, replicate number 1): 0.81
- Growth Rate ([3]; 24 h, replicate number 2): 0.83

Compound: CC1CN(CC(=O)N2CC(C)(C)c3nc(CO)c(Cc4ccc(F)cc4)cc32)C(CN2CCOCC2C)CN1 (stereo not given)
- Growth Rate ([1]; 0 h, replicate number 1): -0.23
- Growth Rate ([2]; 6 h, replicate number 1): 0.63
- Growth Rate ([2]; 6 h, replicate number 2): 0.4
- Growth Rate ([2]; 12 h, replicate number 2): 0.94
- Growth Rate ([2]; 18 h, replicate number 1): 0.98
- Growth Rate ([2]; 18 h, replicate number 2): 0.94
- Growth Rate ([2]; 24 h, replicate number 2): 0.9
- Growth Rate ([3]; 0 h, replicate number 2): -0.63
- Growth Rate ([3]; 6 h, replicate number 1): 0.63
- Growth Rate ([3]; 6 h, replicate number 2): 0.88
- Growth Rate ([3]; 12 h, replicate number 2): 0.96
- Growth Rate ([3]; 24 h, replicate number 2): 0.89

Compound: CCC(=O)O[C@@H](OP(=O)(CCCCc1ccccc1)CC(=O)N1C[C@H](C2CCCCC2)C[C@H]1C(=O)[O-])C(C)C.[Na+] (stereo not given in full)
- Growth Rate ([1]; 0 h, replicate number 1): 0.02
- Growth Rate ([1]; 6 h, replicate number 1): 0.56
- Growth Rate ([1]; 12 h, replicate number 1): 0.78
- Growth Rate ([1]; 18 h, replicate number 1): 0.78
- Growth Rate ([1]; 24 h, replicate number 1): 0.77
- Growth Rate ([2]; 0 h, replicate number 2): -0.2
- Growth Rate ([2]; 6 h, replicate number 2): 0.94
- Growth Rate ([2]; 12 h, replicate number 1): 0.72
- Growth Rate ([3]; 0 h, replicate number 2): -1
- Growth Rate ([3]; 6 h, replicate number 1): 0.41
- Growth Rate ([3]; 6 h, replicate number 2): -0.23
- Growth Rate ([3]; 12 h, replicate number 1): 0.66
- Growth Rate ([3]; 12 h, replicate number 2): 0.04
- Growth Rate ([3]; 18 h, replicate number 1): 0.77
- Growth Rate ([3]; 18 h, replicate number 2): 0.29
- Growth Rate ([3]; 24 h, replicate number 1): 0.84
- Growth Rate ([3]; 24 h, replicate number 2): 0.49

Compound: COC(=O)c1sccc1S(=O)(=O)Nc1ccc(Nc2ccccc2)cc1OC
- Growth Rate ([1]; 0 h, replicate number 1): -0.11
- Growth Rate ([1]; 6 h, replicate number 1): 0.61
- Growth Rate ([1]; 6 h, replicate number 2): 0.91
- Growth Rate ([1]; 12 h, replicate number 1): 0.91
- Growth Rate ([1]; 18 h, replicate number 1): 0.81
- Growth Rate ([1]; 18 h, replicate number 2): 0.9
- Growth Rate ([1]; 24 h, replicate number 2): 0.82
- Growth Rate ([2]; 0 h, replicate number 2): 0.71
- Growth Rate ([2]; 6 h, replicate number 2): 0.48
- Growth Rate ([2]; 12 h, replicate number 2): 0.47
- Growth Rate ([2]; 18 h, replicate number 2): 0.95
- Growth Rate ([2]; 24 h, replicate number 2): 0.74
- Growth Rate ([3]; 0 h, replicate number 2): -0.92
- Growth Rate ([3]; 6 h, replicate number 2): 0.93
- Growth Rate ([3]; 12 h, replicate number 2): 0.77
